From article PMC3401595 (Bioorganic & medicinal chemistry, 2012)

How the values were obtained:
δ opioid receptor = δ opioid receptor (Homo sapiens, UniProt P41143); assay: biochemical; assay type: binding
[1] = higher than I; cited from earlier work
[2] = higher than I; cited from earlier work; remark: listed apart in the source
[3] = systemic administration; greater than I; cited from earlier work

δ opioid receptor, sequence (P41143 whole entry): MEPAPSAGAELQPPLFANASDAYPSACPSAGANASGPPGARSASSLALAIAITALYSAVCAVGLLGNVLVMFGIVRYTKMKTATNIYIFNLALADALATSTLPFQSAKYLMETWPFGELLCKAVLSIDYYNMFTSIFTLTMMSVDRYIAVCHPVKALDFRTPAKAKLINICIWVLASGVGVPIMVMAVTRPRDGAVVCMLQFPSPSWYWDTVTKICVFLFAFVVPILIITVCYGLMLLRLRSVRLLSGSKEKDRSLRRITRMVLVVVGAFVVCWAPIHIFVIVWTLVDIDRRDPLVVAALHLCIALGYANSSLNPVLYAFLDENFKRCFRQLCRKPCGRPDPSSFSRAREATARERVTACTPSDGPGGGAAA

Compound: CN(CCOC/C=C/c1ccccc1)Cc1ccccc1 [Compound 33, N-benzyl-2-(cinnamyloxy)-N-methylethanamine]
- Ki (δ opioid receptor): > 10 µM

Compound: CN1CCC23c4c5ccc(O)c4OC2(C)C(=O)CCC3(OCCCc2ccccc2)C1C5 (centres unmarked) [III, 14-phenylpropyloxymetopon]
- potency in the tail flick assay as compared to I (morphine) [1]: 24000 fold
- potency in the hot plate assay as compared to I (morphine) [2]: 8500 fold

Compound: CCCCN(CCCC)CCOC/C=C/c1ccccc1 [Compound 17, 2-(Cinnamyloxy)-N,N-dibutylethanamine]
- Ki (δ opioid receptor): > 10 µM

Compound: CN(CCOCCCc1ccccc1)Cc1ccccc1 [Compound 34, N-benzyl-N-methyl-2-(3-phenylpropoxy)ethanamine]
- Ki (δ opioid receptor): > 10 µM

Compound: CCCCN(CCCC)CCOCCCc1ccccc1 [Compound 18, N,N-dibutyl-2-(3-phenylpropoxy)ethanamine]
- Ki (δ opioid receptor): > 10 µM

Compound: CN(CCCc1ccccc1)CCOC/C=C/c1ccccc1 [Compound 37, 2-(Cinnamyloxy)-N-methyl-N-phenylpropylethanamine]
- Ki (δ opioid receptor): > 10 µM

Compound: CO[C@@]12CCC(=O)[C@]3(C)Oc4c(O)ccc5c4[C@@]31CCN(C)[C@@H]2C5 [II, 14-methoxymetopon]
- systemic antinociceptive potency relative to I (morphine) [3]: 500 fold
